Laboratory results published in patent US20150335055A1, “BEVERAGE PR[…] BASED ON PIMARICIN AND HEADSPACE GAS” (PEPSICO, INC., priority 2013, published 2015).

Key:
spoilage organisms = experiment: Degradation kinetic of pimaricin and onset of spoilage in carbonated beverage (Background Example 4); format: cell-based
Source text: In the absence of analytical data about the stability of pimaricin in solution, the interpretation of the data about the stability of product over time can be interpreted in one of two ways. Either no degradation of pimaricin occurred and product spoiled because of the outgrowth of those few organisms that were tolerant to the quantity of pimaricin present or spoilage occurred as a consequence of the survival and then outgrowth of organisms as a consequence of the degradation of pimaricin below some critical concentration. A strong argument for the latter is offered in Background Example 4, FIG. 4. Herein, the degradation of pimaricin is tracked from initial concentrations of 13 and 25 ppm in parallel with previously established incidence of spoilage in samples that initially contain 13 and 25 ppm. […] Product contains in excess of 2000 ppb O2.
In the presence of structurally intact pimaricin, spoilage organisms are inhibited from growth. Once the integrity of the bulk pimaricin is compromised, the organisms are able to grow. Regardless of initial concentration, pimaricin in 3.7 volume CO2 beverage will degrade at the same rate. Commonly, carbonated beverages contain a substantial amount of oxygen (>3500 ppb). Given a starting concentration of 13.5 ppm, the degradation of pimaricin is such that the concentration of pimaricin falls to below the minimum inhibitory concentration ( . . . ) at around 80 days. At this time, spoilage organisms begin to grow and induce spoilage (χ).

[1] = tested on: pooled inoculum of strains of Saccharomyces Brettanomyces and Zygosaccharomyces; experiment: 16 week spoilage trial in carbonated mock grape beverage (3.7 and 4.5 volumes CO2), Example 1; format: cell-based; conditions: 1.1 ppm pimaricin, no cyclodextrin; for first note of spoilage: 25° C.; for incidence of spoilage (frequency, 1=100%): after 100 days
Experimental: A 16 week trial was conducted with a mock grape 12 Brix 2% grape juice mock glass “pony” 9.8 oz. bottle. Beverages were carbonated to 3.7 and 4.5 volumes. Five containers of each CO2 level were not inoculated and served as negative controls. Five containers of each CO2 level were inoculated with a pooled inoculum of strains of Saccharomyces Brettanomyces and Zygosaccharomyces such that an initial cell density of 100 organisms per milliliter was achieved. These samples served as positive controls. Half of the remaining containers received the same inoculum and were also dosed with pimaricin to a concentration of 1.1 mg 1^−1 (mg per liter or mg/L). The remaining containers were dosed with pimaricin in complex with β-cyclodextrin in a manner that yielded a final concentration of pimaricin of 0.8 ppm. All samples were then held at 25° C. for the duration of the study. During the course of the study, pimaricin concentration was established in samples employing UV-Visible spectroscopy.

[2] = Pimaricin concentration over time in Example 1 samples by UV-Visible spectroscopy; format: physicochemical; conditions: pimaricin in the absence of cyclodextrin; initial 1.1 ppm; carbonated mock grape beverage, 25° C.
Source text: Such reactions are a consequence of the formation of reactive oxygen species (ROS) wherein oxygen merely serves as an intermediate in the transfer of electrons in REDOX type reactions which ultimately result in the degradation of more complex molecules such as pimaricin. In this regard, O2 behaves similar to a catalyst. Similar to many reactions involving catalyst, the amount of oxygen required to drive in such reactions is very small. In this regard, it is of interest to evaluate the stability of pimaricin in solution under differing conditions of oxygen tension. Clearly, it is also of interest to establish whether the formation of a complex between pimaricin and β-cyclodextrin serves to stabilize pimaricin from degradation by reaction with oxygen. […] Briefly, pimaricin yields a very distinctive UV-visible spectrum with 3 separate absorption maxima. As pimaricin degrades, the peak heights diminish. Degradation can be tracked through the diminishing peak height of any single peak maxima or through changes in relative peak height.
A 16 week trial was conducted with a mock grape 12 Brix 2% grape juice mock glass “pony” 9.8 oz. bottle. Beverages were carbonated to 3.7 and 4.5 volumes. Five containers of each CO2 level were not inoculated and served as negative controls. […]

For “(IR,3S,5R,7R,8E,12R,14E,16E,18E,20E,22R,24S,25R,26S)-{[3S,4S,5S,6R)-4-amino-3,5-dihydroxy-6-methyloxan-2-yl]oxy}-1,3,26 trihydroxy-12-methyl-10-oxo-6,11,28-trioxatricyclo[22.3.1.0^5,7]octacosa-8,14,16,18,20 pentaene-25-carboxylic acid [pimaricin]”, the “critical concentration of pimaricin (no spoilage above it)” value (spoilage organisms; 3.7 volume CO2 beverage) was “about 2 ppm”, the “incubation time before spoilage” value (spoilage organisms; initial concentration 13 ppm pimaricin, carbonated beverage 3.6 volumes CO2) was greater than 80 days and the incidence of spoilage (spoilage organisms; initial concentration 13 ppm pimaricin, carbonated beverage 3.6 volumes CO2, in excess of 2000 ppb O2) was 33%. For the same substance, the “pimaricin concentration below which spoilage ensues” value (spoilage organisms; intersect of time of onset of spoilage and degradation plot for 13 ppm pimaricin) was 1.5-2 ppm, the “spoilage among samples evaluated” value (spoilage organisms; product containing 25 ppm pimaricin, carbonated beverage 3.6 volumes CO2) was “did not suffer any spoilage” and the “time at which pimaricin concentration falls below the minimum inhibitory concentration” value (spoilage organisms; starting concentration 13.5 ppm, 3.7 volume CO2 beverage) was “around 80 days”. For the same substance, the “spoilage from outgrowth of previously inoculated organisms” value (spoilage organisms; starting concentration 25 ppm pimaricin, 3.7 volume CO2 beverage) was “no ensuing spoilage”, the “first note of spoilage” value ([1]; 3.7 volumes CO2) was 20 days and the “first note of spoilage” value ([1]; 4.5 volumes CO2) was 20 days. For the same substance, the “incidence of spoilage (frequency, 1=100%)” value ([1]; 3.7 volumes CO2) was 0.6, the “incidence of spoilage (frequency, 1=100%)” value ([1]; 4.5 volumes CO2) was 0.6 and the half-life of degradation [2] was “about 35 days”.
